{
  "source": "PubChem BioAssay (NCI)",
  "assay_in_all_cases": "NCI-60 cell line screen, 48 h",
  "key": {"786-0 renal": {"system": "786-0 renal"}, "A498 renal": {"system": "A498 renal"}, "A549 NSCLC": {"system": "A549 NSCLC"}, "ACHN renal": {"system": "ACHN renal"}, "BT-549 breast": {"system": "BT-549 breast"}, "CAKI-1 renal": {"system": "CAKI-1 renal"}, "CCRF-CEM leukemia": {"system": "CCRF-CEM leukemia"}, "COLO 205 colon": {"system": "COLO 205 colon"}, "DU-145 prostate": {"system": "DU-145 prostate"}, "EKVX NSCLC": {"system": "EKVX NSCLC"}, "HCC-2998 colon": {"system": "HCC-2998 colon"}, "HCT-116 colon": {"system": "HCT-116 colon"}, "HCT-15 colon": {"system": "HCT-15 colon"}, "HL-60(TB) leukemia": {"system": "HL-60(TB) leukemia"}, "HOP-62 NSCLC": {"system": "HOP-62 NSCLC"}, "HOP-92 NSCLC": {"system": "HOP-92 NSCLC"}, "HS 578T breast": {"system": "HS 578T breast"}, "HT29 colon": {"system": "HT29 colon"}, "IGROV1 ovarian": {"system": "IGROV1 ovarian"}, "K-562 leukemia": {"system": "K-562 leukemia"}, "KM12 colon": {"system": "KM12 colon"}, "LOX IMVI melanoma": {"system": "LOX IMVI melanoma"}, "M14 melanoma": {"system": "M14 melanoma"}, "MALME-3M melanoma": {"system": "MALME-3M melanoma"}, "MCF7 breast": {"system": "MCF7 breast"}, "MDA-MB-231 breast": {"system": "MDA-MB-231 breast"}, "MDA-MB-435": {"system": "MDA-MB-435"}, "MDA-MB-468 breast": {"system": "MDA-MB-468 breast"}, "MOLT-4 leukemia": {"system": "MOLT-4 leukemia"}},
  "note": "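Growth conditions: 96-well plates. Treatment: test compound, 48 hours, 5 concentrations. Analysis: linear interpolation between bracketing concentrations; unreached endpoints set to highest concentration. At the GI50, growth is halved. The concentration for full growth arrest is given as TGI.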",
  "data": [
    {"smiles": "COC(=O)C[C@](O)(CCCC(C)C)C(=O)O[C@H]1C(OC)=C[C@@]23CCCN2CCc2cc4c(cc2[C@@H]13)OCO4", "values": [
      {"measurement": "GI50", "setting": "786-0 renal", "result": 1.96, "unit": "µM"},
      {"measurement": "TGI", "setting": "786-0 renal", "result": 14.3, "unit": "µM"},
      {"measurement": "GI50", "setting": "A498 renal", "result": 0.776, "unit": "µM"},
      {"measurement": "TGI", "setting": "A498 renal", "result": 5.78, "unit": "µM"},
      {"measurement": "GI50", "setting": "A549 NSCLC", "result": 1.39, "unit": "µM"},
      {"measurement": "TGI", "setting": "A549 NSCLC", "result": 17.7, "unit": "µM"},
      {"measurement": "GI50", "setting": "ACHN renal", "result": 1.21, "unit": "µM"},
      {"measurement": "TGI", "setting": "ACHN renal", "result": 6.61, "unit": "µM"},
      {"measurement": "GI50", "setting": "BT-549 breast", "result": 0.995, "unit": "µM"},
      {"measurement": "TGI", "setting": "BT-549 breast", "result": 3.74, "unit": "µM"},
      {"measurement": "GI50", "setting": "CAKI-1 renal", "result": 2.41, "unit": "µM"},
      {"measurement": "TGI", "setting": "CAKI-1 renal", "result": 35.2, "unit": "µM"},
      {"measurement": "GI50", "setting": "CCRF-CEM leukemia", "result": 1.02, "unit": "µM"},
      {"measurement": "TGI", "setting": "CCRF-CEM leukemia", "result": 7.08, "unit": "µM"},
      {"measurement": "GI50", "setting": "COLO 205 colon", "result": 1.79, "unit": "µM"},
      {"measurement": "TGI", "setting": "COLO 205 colon", "result": 8.73, "unit": "µM"},
      {"measurement": "GI50", "setting": "DU-145 prostate", "result": 1.91, "unit": "µM"},
      {"measurement": "TGI", "setting": "DU-145 prostate", "result": 17.9, "unit": "µM"},
      {"measurement": "GI50", "setting": "EKVX NSCLC", "result": 2.29, "unit": "µM"},
      {"measurement": "TGI", "setting": "EKVX NSCLC", "result": 18.1, "unit": "µM"},
      {"measurement": "GI50", "setting": "HCC-2998 colon", "result": 0.723, "unit": "µM"},
      {"measurement": "TGI", "setting": "HCC-2998 colon", "result": 2.71, "unit": "µM"},
      {"measurement": "GI50", "setting": "HCT-116 colon", "result": 0.992, "unit": "µM"},
      {"measurement": "TGI", "setting": "HCT-116 colon", "result": 5.44, "unit": "µM"},
      {"measurement": "GI50", "setting": "HCT-15 colon", "result": 1.13, "unit": "µM"},
      {"measurement": "TGI", "setting": "HCT-15 colon", "result": 4.22, "unit": "µM"},
      {"measurement": "GI50", "setting": "HL-60(TB) leukemia", "result": 0.771, "unit": "µM"},
      {"measurement": "TGI", "setting": "HL-60(TB) leukemia", "result": 2.27, "unit": "µM"},
      {"measurement": "GI50", "setting": "HOP-62 NSCLC", "result": 2.8, "unit": "µM"},
      {"measurement": "TGI", "setting": "HOP-62 NSCLC", "result": 30, "unit": "µM"},
      {"measurement": "GI50", "setting": "HOP-92 NSCLC", "result": 2.3, "unit": "µM"},
      {"measurement": "TGI", "setting": "HOP-92 NSCLC", "result": 18.6, "unit": "µM"},
      {"measurement": "GI50", "setting": "HS 578T breast", "result": 2.12, "unit": "µM"},
      {"measurement": "TGI", "setting": "HS 578T breast", "result": 18.5, "unit": "µM"},
      {"measurement": "GI50", "setting": "HT29 colon", "result": 1.16, "unit": "µM"},
      {"measurement": "TGI", "setting": "HT29 colon", "result": 5.99, "unit": "µM"},
      {"measurement": "GI50", "setting": "IGROV1 ovarian", "result": 1.77, "unit": "µM"},
      {"measurement": "TGI", "setting": "IGROV1 ovarian", "result": 18.8, "unit": "µM"},
      {"measurement": "GI50", "setting": "K-562 leukemia", "result": 1.14, "unit": "µM"},
      {"measurement": "TGI", "setting": "K-562 leukemia", "result": 11.1, "unit": "µM"},
      {"measurement": "GI50", "setting": "KM12 colon", "result": 1.54, "unit": "µM"},
      {"measurement": "TGI", "setting": "KM12 colon", "result": 21.6, "unit": "µM"},
      {"measurement": "GI50", "setting": "LOX IMVI melanoma", "result": 0.852, "unit": "µM"},
      {"measurement": "TGI", "setting": "LOX IMVI melanoma", "result": 4.45, "unit": "µM"},
      {"measurement": "GI50", "setting": "M14 melanoma", "result": 1.14, "unit": "µM"},
      {"measurement": "TGI", "setting": "M14 melanoma", "result": 4.66, "unit": "µM"},
      {"measurement": "GI50", "setting": "MALME-3M melanoma", "result": 0.888, "unit": "µM"},
      {"measurement": "TGI", "setting": "MALME-3M melanoma", "result": 3.22, "unit": "µM"},
      {"measurement": "GI50", "setting": "MCF7 breast", "result": 0.751, "unit": "µM"},
      {"measurement": "TGI", "setting": "MCF7 breast", "result": 2.79, "unit": "µM"},
      {"measurement": "GI50", "setting": "MDA-MB-231 breast", "result": 3.88, "unit": "µM"},
      {"measurement": "TGI", "setting": "MDA-MB-231 breast", "result": 14.6, "unit": "µM"},
      {"measurement": "GI50", "setting": "MDA-MB-435", "result": 1.83, "unit": "µM"},
      {"measurement": "TGI", "setting": "MDA-MB-435", "result": 12.9, "unit": "µM"},
      {"measurement": "GI50", "setting": "MDA-MB-468 breast", "result": 0.869, "unit": "µM"},
      {"measurement": "TGI", "setting": "MDA-MB-468 breast", "result": 3.2, "unit": "µM"},
      {"measurement": "GI50", "setting": "MOLT-4 leukemia", "result": 0.699, "unit": "µM"},
      {"measurement": "TGI", "setting": "MOLT-4 leukemia", "result": 3.4, "unit": "µM"}
    ]}
  ]
}
